What was measured:
recombinant human TYRO3 = molecular target: T1, recombinant human TYRO3 (Homo sapiens, UniProt Q06418); assay: Biochemical potency, HTRF KinEASE-TK kinase assay; details: 1 nM TYRO3, 700 μM ATP
T1 construct: purchased Invitrogen
T1 sequence (Q06418 41-890): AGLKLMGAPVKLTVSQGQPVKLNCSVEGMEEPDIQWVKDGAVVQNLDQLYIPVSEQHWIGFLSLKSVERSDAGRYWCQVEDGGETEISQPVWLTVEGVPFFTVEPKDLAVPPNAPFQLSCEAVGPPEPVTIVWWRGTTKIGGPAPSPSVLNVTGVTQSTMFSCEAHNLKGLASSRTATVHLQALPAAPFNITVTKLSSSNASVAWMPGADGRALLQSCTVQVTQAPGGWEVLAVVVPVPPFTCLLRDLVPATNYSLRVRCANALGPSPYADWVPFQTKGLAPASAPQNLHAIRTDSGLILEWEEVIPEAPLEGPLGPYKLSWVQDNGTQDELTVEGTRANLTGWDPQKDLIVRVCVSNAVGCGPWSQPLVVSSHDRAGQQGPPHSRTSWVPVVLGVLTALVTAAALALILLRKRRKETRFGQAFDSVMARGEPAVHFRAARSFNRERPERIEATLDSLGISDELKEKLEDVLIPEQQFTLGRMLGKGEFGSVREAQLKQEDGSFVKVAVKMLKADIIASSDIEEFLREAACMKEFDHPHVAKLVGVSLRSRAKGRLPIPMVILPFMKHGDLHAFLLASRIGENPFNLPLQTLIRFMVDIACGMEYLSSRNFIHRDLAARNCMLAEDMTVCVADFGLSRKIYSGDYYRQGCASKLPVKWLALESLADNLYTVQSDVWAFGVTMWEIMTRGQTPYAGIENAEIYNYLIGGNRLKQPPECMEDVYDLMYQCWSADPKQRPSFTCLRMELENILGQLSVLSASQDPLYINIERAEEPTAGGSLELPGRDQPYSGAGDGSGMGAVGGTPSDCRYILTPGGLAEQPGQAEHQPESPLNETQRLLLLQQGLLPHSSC
Method: (§1) Measurement of Biochemical Compound Potency of Axl Inhibitors
(§2) Purified recombinant human AXL, TYRO3 and MER proteins were purchased from Invitrogen™. 10 nM AXL, 2 nM TYRO3 or MER were incubated with varying concentrations of compounds in 50 mM HEPES, pH 7.4, 10 mM MgCl2, 0.01% BSA, 1 mM DTT and 2% DMSO in a total volume of 20 μl in a 384-well microplate (Corning™ #3640) at RT for 1 h. The AXL, TYRO3 and MER enzymatic reaction was initiated by transferring 10 μl of enzyme and compound mixture into 10 μl of 1.6 μM TK Substrate-biotin (HTRF® KinEASE-TK kit, Cisbio) and 1400 μM ATP pre-incubated in 50 mM HEPES, pH 7.4, 10 mM MgCl2, 0.01% BSA, 1 mM DTT in a 384-well microplate (Corning™ #3640) at RT, giving the final reaction conditions: 5 nM AXL, 1 nM TYRO3 or MER, 800 nM TK Substrate-biotin and 700 μM ATP in 50 mM HEPES, pH 7.4, 10 mM MgCl2, 0.01% BSA, 1 mM DTT and 1% DMSO with varying concentrations of compounds. Following 2 h incubation at RT, the AXL, TYRO3 and MER enzymatic reaction was stopped by transfer of 10 μl of reaction into 10 μl of detection mix (400 nM Streptavidin-XL665, 200-fold dilution TK Antibody-Cryptate and detection buffer, HTRF® KinEASE-TK kit, Cisbio) in a white 384-well microplate (Perkin Elmer, OptiPlate 384). After 1 h incubation at RT, the plate was put into a plate reader (Evision) to read at 665/620 nm (acceptor/donor) for HTRF. The value of the DMSO blank (MIN inhibition=100% activity) was used as a negative control. The positive control was established by adding 5 μl of enzyme and DMSO mixture into 10 μl of detection mix followed by addition of 5 μl of TK Substrate-biotin and ATP mixture (MAX inhibition=0% activity). To calculate the percent activity, Equation 1 was used. Ratio665/620 is the value at a given compound concentration: […]

recombinant human MER = molecular target: T2, recombinant human MER (Homo sapiens, UniProt Q12866); assay: Biochemical potency, HTRF KinEASE-TK kinase assay; details: 1 nM MER, 700 μM ATP
T2 construct: purchased Invitrogen
T2 sequence (Q12866 21-999): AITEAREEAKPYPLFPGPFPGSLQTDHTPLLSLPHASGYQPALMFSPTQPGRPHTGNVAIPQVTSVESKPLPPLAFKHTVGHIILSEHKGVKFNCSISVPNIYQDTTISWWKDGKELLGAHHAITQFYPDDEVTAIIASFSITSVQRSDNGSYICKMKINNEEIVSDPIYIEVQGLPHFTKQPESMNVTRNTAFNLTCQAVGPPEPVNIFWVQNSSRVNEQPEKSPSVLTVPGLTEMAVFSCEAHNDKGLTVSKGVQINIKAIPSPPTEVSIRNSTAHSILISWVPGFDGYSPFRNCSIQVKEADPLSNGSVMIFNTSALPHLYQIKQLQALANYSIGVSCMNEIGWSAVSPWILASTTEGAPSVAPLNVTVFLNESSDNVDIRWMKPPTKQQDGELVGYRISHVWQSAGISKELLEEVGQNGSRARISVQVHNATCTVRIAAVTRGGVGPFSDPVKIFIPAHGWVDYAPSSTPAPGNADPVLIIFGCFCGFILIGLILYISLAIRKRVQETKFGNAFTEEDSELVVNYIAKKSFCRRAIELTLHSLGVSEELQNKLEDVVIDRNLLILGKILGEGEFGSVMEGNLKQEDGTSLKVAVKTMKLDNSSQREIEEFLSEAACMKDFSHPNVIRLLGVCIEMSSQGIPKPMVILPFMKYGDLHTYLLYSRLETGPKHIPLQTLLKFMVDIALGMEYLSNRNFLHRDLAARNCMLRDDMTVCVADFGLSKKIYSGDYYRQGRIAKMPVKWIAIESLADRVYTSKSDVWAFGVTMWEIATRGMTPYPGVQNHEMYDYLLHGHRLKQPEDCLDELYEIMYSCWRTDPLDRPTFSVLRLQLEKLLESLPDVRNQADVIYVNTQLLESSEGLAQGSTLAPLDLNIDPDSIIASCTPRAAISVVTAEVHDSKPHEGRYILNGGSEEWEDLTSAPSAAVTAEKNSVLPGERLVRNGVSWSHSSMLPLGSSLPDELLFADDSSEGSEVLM
Method: as §1, §2

Compound: Cc1cccnc1-c1ccc(-c2c[nH]c3ncc(-c4ccc5c(c4)CC[C@@H](N[C@H]4CCCOC4)CC5)cc23)cc1 [Example 186, (3S)—N-[(7S)-2-{3-[4-(3-Methylpyridin-2-yl)phenyl]-1H-pyrrolo[2,3-b]pyridin-5-yl}-6,7,8,9-tetrahydro-5H-benzo[7]annulen-7-yl]oxan-3-amine]
- IC50 (recombinant human TYRO3): < 100 nM
- IC50 (recombinant human MER): < 100 nM

Compound: Cc1nn(C)nc1-c1ccc(-c2n[nH]c3ncc(-c4ccc5c(c4)CC[C@@H](N4C6COCC4C6)CC5)cc23)cc1 [Example 14, 6-[(7S)-2-{3-[4-(2,5-Dimethyl-2H-1,2,3-triazol-4-yl)phenyl]-1H-pyrazolo[3,4-b]pyridin-5-yl}-6,7,8,9-tetrahydro-5H-benzo[7]annulen-7-yl]-3-oxa-6-azabicyclo[3.1.1]heptane]
- IC50 (recombinant human TYRO3): < 100 nM
- IC50 (recombinant human MER): 100 to 1000 nM

Compound: c1cnc(-c2ccc(-c3n[nH]c4ncc(-c5ccc6c(c5)CC[C@@H](N5C7COCC5C7)CC6)cc34)cc2)c(O[C@@H]2CCOC2)c1 [Example 104, 6-[(7S)-2-[3-(4-{3-[(3R)—Oxolan-3-yloxy]pyridin-2-yl}phenyl)-1H-pyrazolo[3,4-b]pyridin-5-yl]-6,7,8,9-tetrahydro-5H-benzo[7]annulen-7-yl]-3-oxa-6-azabicyclo[3.1.1]heptane]
- IC50 (recombinant human TYRO3): 100 to 1000 nM
- IC50 (recombinant human MER): 100 to 1000 nM

Compound: CCOc1cccnc1-c1ccc(-c2n[nH]c3ncc(-c4ccc5c(c4)CC[C@@H](N4C6COCC4C6)CC5)cc23)cc1 [Example 181, 6-[(7S)-2-{3-[4-(3-Ethoxypyridin-2-yl)phenyl]-1H-pyrazolo[3,4-b]pyridin-5-yl}-6,7,8,9-tetrahydro-5H-benzo[7]annulen-7-yl]-3-oxa-6-azabicyclo[3.1.1]heptane]
- IC50 (recombinant human TYRO3): 100 to 1000 nM
- IC50 (recombinant human MER): 100 to 1000 nM

Compound: Cn1ncnc1-c1ccc(-c2n[nH]c3ncc(-c4ccc5c(c4)CC[C@@H](N4C6COCC4C6)CC5)cc23)cc1 [Example 110, 6-[(7S)-2-{3-[4-(1-Methyl-1H-1,2,4-triazol-5-yl)phenyl]-2H-pyrazolo[3,4-b]pyridin-5-yl}-6,7,8,9-tetrahydro-5H-benzo[7]annulen-7-yl]-3-oxa-6-azabicyclo[3.1.1]heptane]
- IC50 (recombinant human TYRO3): < 100 nM
- IC50 (recombinant human MER): 100 to 1000 nM

Compound: Cc1ccnc(-c2ccc(-c3n[nH]c4ncc(-c5ccc6c(c5)CC[C@@H](N5C7COCC5C7)CC6)cc34)cc2)c1 [Example 117, 6-[(7S)-2-{3-[4-(4-Methylpyridin-2-yl)phenyl]-1H-pyrazolo[3,4-b]pyridin-5-yl}-6,7,8,9-tetrahydro-5H-benzo[7]annulen-7-yl]-3-oxa-6-azabicyclo[3.1.1]heptane]
- IC50 (recombinant human TYRO3): 100 to 1000 nM
- IC50 (recombinant human MER): > 1000 nM

Compound: O=C1OCCN1c1cccnc1-c1ccc(-c2n[nH]c3ncc(-c4ccc5c(c4)CC[C@@H](N4C6COCC4C6)CC5)cc23)cc1 [Example 121, 3-[2-(4-{5-[(7S)-7-{3-Oxa-6-azabicyclo[3.1.1]heptan-6-yl}-6,7,8,9-tetrahydro-5H-benzo[7]annulen-2-yl]-1H-pyrazolo[3,4-b]pyridin-3-yl}phenyl)pyridin-3-yl]-1,3-oxazolidin-2-one]
- IC50 (recombinant human TYRO3): < 100 nM
- IC50 (recombinant human MER): < 100 nM

Compound: c1cncc(-c2ccc(-c3c[nH]c4ncc(-c5ccc6c(c5)CC[C@@H](N5C7COCC5C7)CC6)cc34)cc2)c1 [Example 158, 6-[(7S)-2-{3-[4-(Pyridin-3-yl)phenyl]-1H-pyrrolo[2,3-b]pyridin-5-yl}-6,7,8,9-tetrahydro-5H-benzo[7]annulen-7-yl]-3-oxa-6-azabicyclo[3.1.1]heptane]
- IC50 (recombinant human TYRO3): > 1000 nM
- IC50 (recombinant human MER): > 1000 nM

Compound: CN(C)C(=O)c1cccnc1-c1ccc(-c2n[nH]c3ncc(-c4ccc5c(c4)CC[C@@H](N4C6COCC4C6)CC5)cc23)cc1 [Example 167, N,N-Dimethyl-2-(4-{5-[(7S)-7-{3-oxa-6-azabicyclo[3.1.1]heptan-6-yl}-6,7,8,9-tetrahydro-5H-benzo[7]annulen-2-yl]-1H-pyrazolo[3,4-b]pyridin-3-yl}phenyl)pyridine-3-carboxamide]
- IC50 (recombinant human TYRO3): < 100 nM
- IC50 (recombinant human MER): 100 to 1000 nM

Compound: CN(C(=O)C1CC1)c1cccnc1-c1ccc(-c2n[nH]c3ncc(-c4ccc5c(c4)CC[C@@H](N4C6COCC4C6)CC5)cc23)cc1 [Example 128, N-Methyl-N-[2-(4-{5-[(7S)-7-{3-oxa-6-azabicyclo[3.1.1]heptan-6-yl}-6,7,8,9-tetrahydro-5H-benzo[7]annulen-2-yl]-1H-pyrazolo[3,4-b]pyridin-3-yl}phenyl)pyridin-3-yl]cyclopropanecarboxamide]
- IC50 (recombinant human TYRO3): < 100 nM
- IC50 (recombinant human MER): 100 to 1000 nM

Compound: Cc1cccnc1-c1ccc(-c2n[nH]c3ncc(-c4ccc5c(c4)CC[C@@H](N4C[C@@H]6C[C@H]4CO6)CC5)cc23)cc1 [Example 130, (1S,4S)-5-[(7S)-2-{3-[4-(3-Methylpyridin-2-yl)phenyl]-1H-pyrazolo[3,4-b]pyridin-5-yl}-6,7,8,9-tetrahydro-5H-benzo[7]annulen-7-yl]-2-oxa-5-azabicyclo[2.2.1]heptane]
- IC50 (recombinant human TYRO3): < 100 nM
- IC50 (recombinant human MER): < 100 nM

Compound: Cc1cc(-c2ncccc2C)ccc1-c1n[nH]c2ncc(-c3ccc4c(c3)CC[C@@H](N3C5COCC3C5)CC4)cc12 [Example 30, 6-[(7S)-3-[3-[2-Methyl-4-(3-methylpyridin-2-yl)phenyl]-1H-pyrazolo[3,4-b]pyridin-5-yl]-6,7,8,9-tetrahydro-5H-benzo[7]annulen-7-yl]-3-oxa-6-azabicyclo[3.1.1]heptane]
- IC50 (recombinant human TYRO3): < 100 nM
- IC50 (recombinant human MER): > 1000 nM

Compound: CC(C)(O)c1cccnc1-c1ccc(-c2n[nH]c3ncc(-c4ccc5c(c4)CC[C@@H](N4C6COCC4C6)CC5)cc23)cc1 [Example 10, 2-[2-(4-{5-[(7S)-7-{3-Oxa-6-azabicyclo[3.1.1]heptan-6-yl}-6,7,8,9-tetrahydro-5H-benzo[7]annulen-2-yl]-1H-pyrazolo[3,4-b]pyridin-3-yl}phenyl)pyridin-3-yl]propan-2-ol]
- IC50 (recombinant human TYRO3): < 100 nM
- IC50 (recombinant human MER): 100 to 1000 nM
